Data: paper PMC11173485, “Connecting GSK-3β Inhibitory Activity with IKK-β or ROCK-1 Inhibition to Target Tau Aggregation and Neuroinflammation in Alzheimer’s Disease—Discovery, In Vitro and In Cellulo Activity of Thiazole-Based Inhibitors” (Molecules, 2024)

Assays:
IKK-β = biological target: T1, IKK-β (Homo sapiens, UniProt O14920); assay: ADP-Glo kinase assay, IKK-β inhibition; assay type: biochemical; conditions: for IC50: mean ± SEM, ATP 25 µM; for inhibition at 10 µM: mean ± SD, read-out: % inh. at 10 µM IKK-β
T1 construct: purchased Promega
T1 sequence (O14920 1-756): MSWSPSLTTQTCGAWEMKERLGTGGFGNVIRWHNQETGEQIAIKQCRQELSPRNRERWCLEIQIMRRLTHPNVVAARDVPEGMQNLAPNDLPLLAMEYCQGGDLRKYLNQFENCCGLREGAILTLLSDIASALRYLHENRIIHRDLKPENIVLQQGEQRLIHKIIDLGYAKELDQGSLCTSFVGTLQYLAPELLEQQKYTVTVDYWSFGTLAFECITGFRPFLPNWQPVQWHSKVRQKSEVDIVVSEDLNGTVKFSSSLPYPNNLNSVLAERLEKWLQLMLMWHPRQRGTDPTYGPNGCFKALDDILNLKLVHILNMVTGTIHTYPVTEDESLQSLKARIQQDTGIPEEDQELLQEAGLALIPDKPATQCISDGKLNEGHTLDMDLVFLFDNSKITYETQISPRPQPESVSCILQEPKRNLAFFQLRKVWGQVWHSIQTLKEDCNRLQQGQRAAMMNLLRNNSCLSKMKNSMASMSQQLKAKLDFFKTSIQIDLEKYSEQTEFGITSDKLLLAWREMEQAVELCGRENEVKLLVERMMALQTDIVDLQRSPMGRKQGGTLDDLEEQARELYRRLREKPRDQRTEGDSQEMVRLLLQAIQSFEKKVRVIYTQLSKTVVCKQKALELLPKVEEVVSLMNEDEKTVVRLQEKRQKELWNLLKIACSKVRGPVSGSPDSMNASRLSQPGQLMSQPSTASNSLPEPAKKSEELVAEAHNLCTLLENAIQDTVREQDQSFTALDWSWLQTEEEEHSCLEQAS
From the text: (§1) We evaluated the inhibitory activity of the final compounds against GSK-3β, IKK-β, and ROCK-1 kinases using the commercially available ADP-Glo™ kinase assay. The method was based on the measurement of luminescence that correlates with kinase activity. […] The latter are inhibitors of the kinases of interest and were integral to the design of our studies.
(§2) Promega’s Kinase Enzyme Systems (Promega; Madison, WI, USA) were used to determine the activities of the tested compounds against the human recombinant kinases GSK-3β, IKK- β, and ROCK-1. The assays were performed according to the provided manufacturer’s instruction, based on the optimized conditions of the enzymatic reactions, using the low-volume, white polystyrene, 384-well plates. The ADP-Glo™ Assay (Promega; Madison, WI, USA) was used for bioluminescent detection of the kinase activity. Stock solutions of the tested compounds in DMSO (1mM) were diluted with the Kinase Assay Buffer before use (40 mM Tris, pH 7.5, enriched with 50 µM dithiothreitol; DTT), giving the final desired concentrations. The kinase enzymes, substrates, and ATP solutions were also diluted with the assay buffer prior to use. The GSK-3β, IKK-β, and ROCK-1 substrates were derived from human muscle glycogen synthase 1, human IkBA, and human 40S ribosomal protein S6, respectively. The assay procedure was as follows: At first, the appropriate kinase enzyme (GSK-3β: 10 ng per well; IKK-β: 45 ng per well; ROCK-1: 24 ng per well) was incubated with the tested sample (10 µM in well) for 5 min. The DMSO solution (1% in well) was used in the blank samples instead of the tested inhibitors. After the incubation period, ATP (25 µM per well in the case of GSK-3β and IKK-β kinases; 5 µM per well in the case of ROCK-1 kinase) and an appropriate enzyme substrate (0.2 µg/µL in well) were added to start the enzymatic reaction. The reaction mixture was kept at room temperature for 1 h; then, the ADP-Glo™ reagent was added, to terminate the kinase reaction and deplete any remaining ATP. After 40 min, a second reagent (Kinase Detection Reagent) was applied to convert the obtained ADP to ATP and to generate light from the newly synthesized ATP using a luciferase/luciferin reaction. The mixture was incubated for another 30 min at room temperature before the luminescence was measured. The calculations of the percent of kinases’ inhibition by tested compounds were based on the equation 100 − (S/B) × 100; S and B are the enzyme activities with and without the tested sample, respectively. […] Each compound was evaluated in two independent experiments, with every data point collected in duplicate.

GSK-3β = GSK-3β (Homo sapiens, UniProt P49841); assay: ADP-Glo kinase assay, GSK-3β inhibition; assay type: biochemical; design: purchased Promega; conditions: for IC50: mean ± SEM, ATP 25 µM
From the text: as §1, §2

Sequence of GSK-3β (P49841 whole entry): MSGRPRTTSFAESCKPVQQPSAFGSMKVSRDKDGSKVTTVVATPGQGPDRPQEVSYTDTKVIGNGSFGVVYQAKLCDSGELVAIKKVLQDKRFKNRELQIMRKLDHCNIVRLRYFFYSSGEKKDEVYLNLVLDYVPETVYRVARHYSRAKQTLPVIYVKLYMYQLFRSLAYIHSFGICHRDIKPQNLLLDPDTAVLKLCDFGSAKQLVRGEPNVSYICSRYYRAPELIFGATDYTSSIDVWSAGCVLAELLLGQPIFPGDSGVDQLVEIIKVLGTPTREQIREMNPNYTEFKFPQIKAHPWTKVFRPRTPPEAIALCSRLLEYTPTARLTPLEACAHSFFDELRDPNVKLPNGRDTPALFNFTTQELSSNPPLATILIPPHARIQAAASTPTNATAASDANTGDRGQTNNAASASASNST

SMILES | IC50 (IKK-β) | IC50 (GSK-3β) | inhibition at 10 µM (IKK-β) | inhibition at 10 µM (GSK-3β; 10 µM, mean ± SD, read-out: % inh. at 10 µM GSK-3β)
CC(C)C(=O)Nc1cc(-c2cc3c(s2)C(=O)NC(C)(C)N3)ccn1 [Compound 39, N-(4-(2,2-Dimethyl-4-oxo-1,2,3,4-tetrahydrothieno [3,2-d]pyrimidin-6-yl)pyridin-2-yl)isobutyramide] |  | 12 nM | 33% | 
NC(=O)Nc1cc(-c2cccc(NC(=O)C3CC3)c2)sc1C(N)=O [Compound 58, 5-(3-(Cyclopropanecarboxamido)phenyl)-3-ureidothiophene-2-carboxamide] | 422 ± 12 nM |  |  | 36%
NC(=O)Nc1cc(-c2ccnc(NC(=O)C3CCC3)c2)sc1C(N)=O [Compound 50, 5-(2-(Cyclobutanecarboxamido)pyridin-4-yl)-3-ureidothiophene-2-carboxamide] |  | 34 nM | < 10% | 
COc1nc(-c2ccnc(NC(=O)C3CC3)c2)sc1C(N)=O [II, reference compound] |  | 5 nM | 22% | 
CC(C)C(=O)Nc1cc(-c2cc(NC(N)=O)c(C(N)=O)s2)ccn1 [Compound 48, 5-(2-Isobutyramidopyridin-4-yl)-3-ureidothiophene-2-carboxamide] |  | 22 nM | < 10% | 
NC(=O)Nc1cc(-c2ccnc(NC(=O)C3CC3)c2)sc1C(N)=O [Compound 49, 5-(2-(Cyclopropanecarboxamido)pyridin-4-yl)-3-ureidothiophene-2-carboxamide] |  | 20 nM | 16% | 
O=C1NC2(CCOC2)Nc2cc(-c3ccnc(NC(=O)C4CC4)c3)sc21 (centres unmarked) [Compound 62, N-(4-(4′-Oxo-3′,4,4′,5-tetrahydro-1′H,2H-spiro[furan-3,2′-thieno [3,2-d]pyrimidin]-6′-yl)pyridin-2-yl)cyclopropanecarboxamide] |  | 8 nM | 39% | 

The next lines start with results.

IC50 (IKK-β) | IC50 (GSK-3β) | inhibition at 10 µM (IKK-β) | SMILES | inhibition at 10 µM (GSK-3β; 10 µM, mean ± SD, read-out: % inh. at 10 µM GSK-3β)
7350 nM | 10 nM |  | O=C1NC2(CCCC2)Nc2cc(-c3ccnc(NC(=O)C4CC4)c3)sc21 [Compound 60, N-(4-(4’-Oxo-3’,4’-dihydro-1’H-spiro[cyclopentane-1,2’-thieno [3,2-d]pyrimidin]-6’-yl)pyridin-2-yl)cyclopropanecarboxamide] | 
4380 ± 544 nM | 10 nM |  | CC1(C)NC(=O)c2sc(-c3ccnc(NC(=O)C4CC4)c3)cc2N1 [Compound 40, N-(4-(2,2-Dimethyl-4-oxo-1,2,3,4-tetrahydrothieno [3,2-d]pyrimidin-6-yl)pyridin-2-yl)-cyclopropanecarboxamide] | 
 | 32 ± 1 nM | 32% | CC1(C)NC(=O)c2sc(-c3ccnc(NC(=O)C4CCC4)c3)cc2N1 [Compound 41, N-(4-(2,2-Dimethyl-4-oxo-1,2,3,4-tetrahydrothieno [3,2-d]pyrimidin-6-yl)pyridin-2-yl)-cyclobutanecarboxamide] | 
